Where “and” joins values, the source holds several entries; their conditions need not be identical. Equal entries are not always repeated. Inconclusive results and toxic doses are left out. Rule for the calls: active = survival T/C of 150% or more; inactive = T/C below 125% in these data.
Tested on: P388 leukemia ip, CD2F1 mice, survival T/C
Test: NCI In Vivo Anticancer Drug Screen. Data for tumor model P388 Leukemia (intraperitoneal) in CD2F1 (CDF1) mice
Conditions: endpoint: median survival time, higher = longer survival
Method in brief: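 Mice carrying the transplanted tumor received test compound or vehicle. Survival was recorded in each group, and the value is the treated-group measurement divided by that of the vehicle-treated control group.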

[1] = dose: 100.0 mg/kg/injection, schedule: Q04DX003 (ip), vehicle: saline
[2] = dose: 200.0 mg/kg/injection, schedule: Q04DX003 (ip), vehicle: saline
[3] = dose: 400.0 mg/kg/injection, schedule: Q04DX003 (ip), vehicle: saline
[4] = dose: 100.0 mg/kg/injection, schedule: Q01DX001 (ip), vehicle: Klucel (hydroxypropylcellulose) (HPC)
[5] = dose: 200.0 mg/kg/injection, schedule: Q01DX001 (ip), vehicle: Klucel (hydroxypropylcellulose) (HPC)
[6] = dose: 400.0 mg/kg/injection, schedule: Q01DX001 (ip), vehicle: Klucel (hydroxypropylcellulose) (HPC)
[7] = dose: 25.0 mg/kg/injection, schedule: Q01DX001 (ip), vehicle: saline with Tween-80
[8] = dose: 50.0 mg/kg/injection, schedule: Q01DX001 (ip), vehicle: saline with Tween-80
[9] = dose: 100.0 mg/kg/injection, schedule: Q01DX001 (ip), vehicle: saline with Tween-80
[10] = dose: 100.0 mg/kg/injection, schedule: Q01DX009 (ip), vehicle: Klucel (hydroxypropylcellulose) (HPC)
[11] = dose: 200.0 mg/kg/injection, schedule: Q01DX009 (ip), vehicle: Klucel (hydroxypropylcellulose) (HPC)
[12] = dose: 60.0 mg/kg/injection, schedule: Q01DX005 (ip), vehicle: saline with Tween-80
[13] = dose: 120.0 mg/kg/injection, schedule: Q01DX005 (ip), vehicle: Klucel (hydroxypropylcellulose) (HPC)
[14] = dose: 120.0 mg/kg/injection, schedule: Q01DX005 (ip), vehicle: saline with Tween-80
[15] = dose: 240.0 mg/kg/injection, schedule: Q01DX005 (ip), vehicle: Klucel (hydroxypropylcellulose) (HPC)
[16] = dose: 50.0 mg/kg/injection, schedule: Q01DX005 (ip), vehicle: Klucel (hydroxypropylcellulose) (HPC)
[17] = dose: 100.0 mg/kg/injection, schedule: Q01DX005 (ip), vehicle: Klucel (hydroxypropylcellulose) (HPC)
[18] = dose: 200.0 mg/kg/injection, schedule: Q01DX005 (ip), vehicle: Klucel (hydroxypropylcellulose) (HPC)

Measured: T/C

O=S(=O)(Nc1ncccn1)c1ccc(NCc2c3ccccc3nc3ccccc23)cc1
inactive: dose: 12.5 mg/kg/injection, schedule: Q04DX002 (ip), vehicle: Klucel (hydroxypropylcellulose) (HPC) 96 % of control | dose: 25.0 mg/kg/injection, schedule: Q04DX002 (ip), vehicle: Klucel (hydroxypropylcellulose) (HPC) 99 % of control | dose: 50.0 mg/kg/injection, schedule: Q04DX002 (ip), vehicle: Klucel (hydroxypropylcellulose) (HPC) 87 % of control and 96 % of control | dose: 100.0 mg/kg/injection, schedule: Q04DX002 (ip), vehicle: Klucel (hydroxypropylcellulose) (HPC) 87 % of control and 90 % of control | dose: 200.0 mg/kg/injection, schedule: Q04DX002 (ip), vehicle: Klucel (hydroxypropylcellulose) (HPC) 96 % of control | dose: 400.0 mg/kg/injection, schedule: Q04DX002 (ip), vehicle: Klucel (hydroxypropylcellulose) (HPC) 91 % of control and 96 % of control

O=C(O)CNCc1ccc(F)cc1
inactive: [1] 98 % of control | [2] 103 % of control | [3] 102 % of control | dose: 600.0 mg/kg/injection, schedule: Q04DX003 (ip), vehicle: saline 100 % of control

CN(C)CCC(=O)C1CC1
inactive: dose: 12.5 mg/kg/injection, schedule: Q01DX005 (ip), vehicle: suspension in saline 94 % of control | dose: 25.0 mg/kg/injection, schedule: Q01DX005 (ip), vehicle: suspension in saline 97 % of control | dose: 50.0 mg/kg/injection, schedule: Q01DX005 (ip), vehicle: saline with Tween-80 92 % of control | dose: 50.0 mg/kg/injection, schedule: Q01DX005 (ip), vehicle: suspension in saline 100 % of control

CN(C)CCN1C(=O)Cc2ccccc2C1=O
inactive: dose: 12.5 mg/kg/injection, schedule: Q01DX001 (ip), vehicle: saline 111 % of control | dose: 25.0 mg/kg/injection, schedule: Q01DX001 (ip), vehicle: saline 109 % of control | dose: 50.0 mg/kg/injection, schedule: Q01DX001 (ip), vehicle: saline 101 % of control

CS(=O)(=O)/C=C/c1ccccc1
inactive: dose: 50.0 mg/kg/injection, schedule: Q01DX009 (ip), vehicle: saline with Tween-80 103 % of control | dose: 100.0 mg/kg/injection, schedule: Q01DX009 (ip), vehicle: saline with Tween-80 90 % of control | dose: 200.0 mg/kg/injection, schedule: Q01DX009 (ip), vehicle: saline with Tween-80 90 % of control

O=C(Nc1c[nH]c(=O)[nH]c1=O)C(Cl)Cl
inactive: dose: 3.12 mg/kg/injection, schedule: Q01DX009 (ip), vehicle: saline 93 % of control | dose: 6.25 mg/kg/injection, schedule: Q01DX009 (ip), vehicle: saline 97 % of control | dose: 12.5 mg/kg/injection, schedule: Q01DX009 (ip), vehicle: saline 101 % of control | dose: 25.0 mg/kg/injection, schedule: Q01DX009 (ip), vehicle: saline 100 % of control

COC(=O)Nc1nnc(Cn2c([N+](=O)[O-])cnc2C)s1
inactive: [4] 96 % of control | [5] 101 % of control | [6] 93 % of control

Cc1ccc(S(=O)(=O)N/N=C/c2c(Cl)n(C)c3ccccc23)cc1
inactive: [4] 91 % of control | [5] 97 % of control | [6] 100 % of control

O=c1[nH]c(=O)c2ncsc2[nH]1
inactive: [7] 100 % of control | [8] 100 % of control and 104 % of control | [9] 100 % of control and 113 % of control | dose: 200.0 mg/kg/injection, schedule: Q01DX001 (ip), vehicle: saline with Tween-80 118 % of control

Cc1ccc(NC(=O)Nc2nc3ccccc3s2)cc1NC(=O)Nc1nc2ccccc2s1
inactive: dose: 50.0 mg/kg/injection, schedule: Q01DX009 (ip), vehicle: Klucel (hydroxypropylcellulose) (HPC) 110 % of control | [10] 102 % of control | [11] 109 % of control

Nc1ccccc1S(=O)(=O)Nc1c(N)nc(SCC(=O)O)[nH]c1=O
inactive: dose: 15.0 mg/kg/injection, schedule: Q01DX005 (ip), vehicle: saline with Tween-80 98 % of control and 101 % of control | dose: 30.0 mg/kg/injection, schedule: Q01DX005 (ip), vehicle: saline with Tween-80 100 % of control and 95 % of control | [12] 100 % of control and 95 % of control | [13] 87 % of control and 96 % of control | [14] 99 % of control and 98 % of control | [15] 98 % of control and 93 % of control

NC(N)=N/N=C1/c2ccccc2/C(=N/N=C(N)N)C1[N+](=O)[O-]
inactive: dose: 25.0 mg/kg/injection, schedule: Q01DX001 (ip), vehicle: Klucel (hydroxypropylcellulose) (HPC) 112 % of control | dose: 50.0 mg/kg/injection, schedule: Q01DX001 (ip), vehicle: Klucel (hydroxypropylcellulose) (HPC) 114 % of control | [4] 114 % of control | [5] 113 % of control | [6] 111 % of control

O=C1OCCN1CCCl
inactive: [10] 118 % of control | [11] 121 % of control | dose: 400.0 mg/kg/injection, schedule: Q01DX009 (ip), vehicle: Klucel (hydroxypropylcellulose) (HPC) 121 % of control

CC(=O)OC1(c2ccccc2)N=C(c2ccccc2)N=C1c1ccccc1 (stereo unspecified)
inactive: dose: 60.0 mg/kg/injection, schedule: Q01DX005 (ip), vehicle: Klucel (hydroxypropylcellulose) (HPC) 106 % of control | [13] 110 % of control | [15] 105 % of control

CCCc1c(Cl)[nH]c(=O)n(C)c1=O
inactive: [16] 111 % of control | [17] 111 % of control | [18] 97 % of control

O=C1C=CC(=Nc2ccccc2)O1
inactive: dose: 2.5 mg/kg/injection, schedule: Q01DX009 (ip), vehicle: saline with Tween-80 100 % of control | dose: 5.0 mg/kg/injection, schedule: Q01DX009 (ip), vehicle: saline with Tween-80 100 % of control | dose: 10.0 mg/kg/injection, schedule: Q01DX009 (ip), vehicle: saline with Tween-80 95 % of control

Cc1noc2nc(-c3ccccc3)cc(N3CCN(C)CC3)c12
inactive: dose: 12.5 mg/kg/injection, schedule: Q01DX005 (ip), vehicle: other 107 % of control | dose: 25.0 mg/kg/injection, schedule: Q01DX005 (ip), vehicle: other 97 % of control | dose: 50.0 mg/kg/injection, schedule: Q01DX005 (ip), vehicle: other 97 % of control | dose: 100.0 mg/kg/injection, schedule: Q01DX005 (ip), vehicle: other 101 % of control | dose: 200.0 mg/kg/injection, schedule: Q01DX005 (ip), vehicle: other 104 % of control

CCCc1nc(N)[nH]c(=O)c1CCCCc1ccccc1
inactive: [12] 90 % of control and 96 % of control | [14] 88 % of control and 103 % of control | dose: 240.0 mg/kg/injection, schedule: Q01DX005 (ip), vehicle: saline with Tween-80 96 % of control and 87 % of control

CC(=O)OC1CCC2(C)C(=CCC3C2CCC2(C)C3CC3N(c4ccccc4Cl)C32C(C)=O)C1 (stereo unspecified)
inactive: [7] 93 % of control | [8] 95 % of control | [9] 99 % of control and 90 % of control | dose: 400.0 mg/kg/injection, schedule: Q01DX001 (ip), vehicle: saline with Tween-80 89 % of control

O=C1NC(CCO)C(=O)NC1CCO (stereo unspecified)
inactive: dose: 50.0 mg/kg/injection, schedule: Q01DX005 (ip), vehicle: saline 100 % of control | dose: 100.0 mg/kg/injection, schedule: Q01DX005 (ip), vehicle: saline 100 % of control | dose: 200.0 mg/kg/injection, schedule: Q01DX005 (ip), vehicle: saline 106 % of control

C(=C/c1cc2cc(C3=NCCN3)ccc2o1)/C=C/c1cc2cc(C3=NCCN3)ccc2o1
inactive: [1] 106 % of control | [2] 104 % of control | [3] 110 % of control

CCC1C2CCCCN3C(C4CC(C)C(=O)O4)CC(C4C(C)C(=O)OC14)C23 (stereo unspecified)
inactive: [16] 101 % of control | [17] 96 % of control | [18] 97 % of control | dose: 400.0 mg/kg/injection, schedule: Q01DX005 (ip), vehicle: Klucel (hydroxypropylcellulose) (HPC) 91 % of control

CC12CCC3C(CCC4=CC(OC5OCC(O)C(O)C5O)CCC43C=O)C1(O)CCC2C1=CC(=O)OC1 (stereo unspecified)
inactive: dose: 1.0 mg/kg/injection, schedule: Q01DX009 (ip), vehicle: Klucel (hydroxypropylcellulose) (HPC) 99 % of control | dose: 2.0 mg/kg/injection, schedule: Q01DX009 (ip), vehicle: Klucel (hydroxypropylcellulose) (HPC) 105 % of control | dose: 4.0 mg/kg/injection, schedule: Q01DX009 (ip), vehicle: Klucel (hydroxypropylcellulose) (HPC) 97 % of control | dose: 8.0 mg/kg/injection, schedule: Q01DX009 (ip), vehicle: Klucel (hydroxypropylcellulose) (HPC) 108 % of control

Reference: PubChem BioAssay AID330 (DTP/NCI, 2004)
